Reference: ChEMBL document CHEMBL1139685, “Antimalarial activity of N-alkyl amine, carboxamide, sulfonamide, and urea derivatives of a dispiro-1,2,4-trioxolane piperidine” (Bioorg Med Chem Lett, 2006)
In brackets after ≈: the same amount, converted by molar mass.

Assays:
[1] = test system: Plasmodium falciparum; assay: Antimalarial activity against Plasmodium falciparum K1; type: functional, organism-based
[2] = test system: Plasmodium falciparum; assay: Antimalarial activity against Plasmodium falciparum NF54; type: functional, organism-based
[3] = test system: Mus musculus; assay: Survival of MORO mice (Mus musculus) infected with Plasmodium berghei at 10 mg/kg, perorally after 30 day post-infection; type: functional; details: route oral
[4] = test system: Mus musculus; assay: Survival of MORO mice (Mus musculus) infected with Plasmodium berghei at 10 mg/kg, subcutaneously after 30 day post-infection; type: functional; details: route subcutaneous
[5] = test system: Plasmodium berghei; assay: Antimalarial activity in Plasmodium berghei infected MORO mice (Mus musculus) at 10 mg/kg peroral dose; type: functional; details: route oral
[6] = test system: Plasmodium berghei; assay: Antimalarial activity in Plasmodium berghei infected MORO mice (Mus musculus) at 10 mg/kg subcutaneous dose; type: functional
[7] = Lipophilicity, LogD at pH 7.4; type: physicochemical; details: buffer
[8] = Partition coefficient, logP of the compound; type: physicochemical; details: octanol/water

COCC(=O)N1CC[C@]2(CC1)OO[C@]1(O2)C2CC3CC(C2)CC1C3
IC50 [1]: 0.95 ng/mL (≈ 2.82 nM) | IC50 [2]: 0.2 ng/mL (≈ 0.593 nM) | Activity [3]: 7.3 days | Activity [4]: 7.3 days

C1CC2(CCN1)OOC1(O2)C2CC3CC(C2)CC1C3.Cl (centres undefined)
IC50 [1]: 0.15 ng/mL | IC50 [2]: 0.34 ng/mL | Activity [5]: 59% | Activity [6]: 84% | Activity [3]: 6.3 days | Activity [4]: 7.7 days | logD [7]: 0.25

O=S(=O)(c1ccccc1)N1CCC2(CC1)OOC1(O2)C2CC3CC(C2)CC1C3 (centres undefined)
IC50 [1]: 1.1 ng/mL (≈ 2.71 nM) | IC50 [2]: 1.2 ng/mL (≈ 2.96 nM) | Activity [5]: 71% | Activity [6]: >99.99% | Activity [3]: 6 days | Activity [4]: 10.3 days | logP [8]: 5.5

C1CCC2(CC1)OOC1(O2)C2CC3CC(C2)CC1C3 (centres undefined)
IC50 [1]: 0.97 ng/mL (≈ 3.67 nM) | IC50 [2]: 1.4 ng/mL (≈ 5.3 nM) | Activity [5]: 94% | Activity [6]: >99.99% | Activity [3]: 7.2 days | Activity [4]: 11.9 days | logP [8]: 6.1

O=C(CO)N1CCC2(CC1)OOC1(O2)C2CC3CC(C2)CC1C3 (centres undefined)
IC50 [1]: 0.3 ng/mL (≈ 0.928 nM) | IC50 [2]: 0.6 ng/mL (≈ 1.86 nM) | Activity [5]: 92% | Activity [6]: 99.8% | Activity [3]: 7 days | Activity [4]: 8 days | logP [8]: 2.4

O=C(N1CCOCC1)N1CCC2(CC1)OOC1(O2)C2CC3CC(C2)CC1C3 (centres undefined)
Activity [3]: 8.7 days | Activity [4]: 9 days

O=C(O)CCC(=O)N1CCC2(CC1)OOC1(O2)C2CC3CC(C2)CC1C3 (centres undefined)
IC50 [1]: 7.1 ng/mL (≈ 19.4 nM) | IC50 [2]: 7.2 ng/mL (≈ 19.7 nM) | Activity [5]: 39% | Activity [6]: 52% | Activity [3]: 6 days | Activity [4]: 6.3 days | logP [8]: 2.3

O=C(O)c1ccccc1C(=O)N1CCC2(CC1)OOC1(O2)C2CC3CC(C2)CC1C3 (centres undefined)
IC50 [1]: 22 ng/mL (≈ 53.2 nM) | IC50 [2]: 13 ng/mL (≈ 31.4 nM) | Activity [3]: 6.3 days | Activity [4]: 6.3 days | logD [7]: 1.2

NC(=O)N1CCC2(CC1)OOC1(O2)C2CC3CC(C2)CC1C3 (centres undefined)
Activity [3]: 8.3 days | Activity [4]: 8.7 days

CC(C)(C)NC(=O)N1CCC2(CC1)OOC1(O2)C2CC3CC(C2)CC1C3 (centres undefined)
IC50 [1]: 0.98 ng/mL (≈ 2.69 nM) | IC50 [2]: 1.8 ng/mL (≈ 4.94 nM) | Activity [3]: 6.7 days | Activity [4]: 9.7 days

CCS(=O)(=O)CCN1CCC2(CC1)OOC1(O2)C2CC3CC(C2)CC1C3 (centres undefined)
IC50 [1]: 1 ng/mL (≈ 2.59 nM) | IC50 [2]: 2.9 ng/mL (≈ 7.52 nM) | Activity [3]: 7 days | Activity [4]: 8 days | logD [7]: 2.3

Cc1ccc(NC(=O)N2CCC3(CC2)OOC2(O3)C3CC4CC(C3)CC2C4)cc1 (centres undefined)
IC50 [1]: 2.3 ng/mL (≈ 5.77 nM) | IC50 [2]: 2.3 ng/mL (≈ 5.77 nM) | Activity [3]: 6 days | Activity [4]: 14.3 days

CN1CCN(C(=O)N2CCC3(CC2)OOC2(O3)C3CC4CC(C3)CC2C4)CC1 (centres undefined)
IC50 [1]: 0.2 ng/mL (≈ 0.511 nM) | IC50 [2]: 0.22 ng/mL (≈ 0.562 nM) | Activity [3]: 7.3 days | Activity [4]: 8.3 days | logD [7]: 2.6

CCS(=O)(=O)N1CCC2(CC1)OOC1(O2)C2CC3CC(C2)CC1C3 (centres undefined)
IC50 [1]: 0.38 ng/mL (≈ 1.06 nM) | IC50 [2]: 0.81 ng/mL (≈ 2.27 nM) | Activity [5]: 85% | Activity [6]: 99.94% | Activity [3]: 7 days | Activity [4]: 9.3 days

O=S(=O)(Cc1ccccc1)N1CCC2(CC1)OOC1(O2)C2CC3CC(C2)CC1C3 (centres undefined)
IC50 [1]: 1.7 ng/mL (≈ 4.05 nM) | IC50 [2]: 4.1 ng/mL (≈ 9.77 nM) | Activity [3]: 5.7 days | Activity [4]: 8 days

c1ccc(CN2CCC3(CC2)OOC2(O3)C3CC4CC(C3)CC2C4)cc1 (centres undefined)
IC50 [1]: 2.5 ng/mL (≈ 7.03 nM) | IC50 [2]: 2.6 ng/mL (≈ 7.31 nM) | Activity [3]: 6 days | Activity [4]: 10 days | logD [7]: 3.5

CN(C)C(=O)N1CCC2(CC1)OOC1(O2)C2CC3CC(C2)CC1C3 (centres undefined)
IC50 [1]: 0.7 ng/mL (≈ 2.08 nM) | Activity [3]: 7 days | Activity [4]: 7 days

O=C(Nc1ccc(Cl)cc1)N1CCC2(CC1)OOC1(O2)C2CC3CC(C2)CC1C3 (centres undefined)
Activity [3]: 6 days | Activity [4]: 13.7 days

CO[C@H]1O[C@@H]2O[C@@]3(C)CC[C@H]4[C@H](C)CC[C@@H]([C@H]1C)[C@@]24OO3
IC50 [1]: 0.74 ng/mL (≈ 2.48 nM) | IC50 [2]: 1.2 ng/mL (≈ 4.02 nM) | Activity [5]: 98% | Activity [6]: 99.78% | Activity [3]: 7.9 days | Activity [4]: 9.1 days | logP [8]: 3.3

CC(=O)Nc1ccc(S(=O)(=O)N2CCC3(CC2)OOC2(O3)C3CC4CC(C3)CC2C4)cc1 (centres undefined)
IC50 [1]: 1.4 ng/mL (≈ 3.03 nM) | IC50 [2]: 0.5 ng/mL (≈ 1.08 nM) | Activity [3]: 6.3 days | Activity [4]: 12 days

CC(=O)N1CCC2(CC1)OOC1(O2)C2CC3CC(C2)CC1C3 (centres undefined)
IC50 [1]: 0.82 ng/mL (≈ 2.67 nM) | IC50 [2]: 0.93 ng/mL (≈ 3.03 nM) | Activity [5]: 81% | Activity [6]: 85% | Activity [3]: 6.7 days | Activity [4]: 7.3 days | logP [8]: 3.8

CC(C)(C)CC(=O)N1CCC2(CC1)OOC1(O2)C2CC3CC(C2)CC1C3 (centres undefined)
Activity [3]: 7.7 days | Activity [4]: 8.3 days

c1cc(CN2CCC3(CC2)OOC2(O3)C3CC4CC(C3)CC2C4)ccn1 (centres undefined)
IC50 [1]: 0.4 ng/mL (≈ 1.12 nM) | IC50 [2]: 0.67 ng/mL (≈ 1.88 nM) | Activity [3]: 6.3 days | Activity [4]: 11 days | logD [7]: 2.7

O=C(Nc1ccccc1)N1CCC2(CC1)OOC1(O2)C2CC3CC(C2)CC1C3 (centres undefined)
Activity [3]: 7 days | Activity [4]: 19.7 days

O=C(c1ccncc1)N1CCC2(CC1)OOC1(O2)C2CC3CC(C2)CC1C3 (centres undefined)
Activity [3]: 6.7 days | Activity [4]: 7 days

CC(C)N(C(=O)N1CCC2(CC1)OOC1(O2)C2CC3CC(C2)CC1C3)C(C)C (centres undefined)
IC50 [2]: 6.6 ng/mL (≈ 16.8 nM) | Activity [3]: 8.3 days | Activity [4]: 20.3 days

CS(=O)(=O)N1CCC2(CC1)OOC1(O2)C2CC3CC(C2)CC1C3 (centres undefined)
IC50 [1]: 0.59 ng/mL (≈ 1.72 nM) | IC50 [2]: 0.64 ng/mL (≈ 1.86 nM) | Activity [5]: 93% | Activity [6]: 99.97% | Activity [3]: 6.7 days | Activity [4]: 10.3 days

O=C(c1ccccc1)N1CCC2(CC1)OOC1(O2)C2CC3CC(C2)CC1C3 (centres undefined)
IC50 [1]: 0.35 ng/mL (≈ 0.947 nM) | IC50 [2]: 0.58 ng/mL (≈ 1.57 nM) | Activity [5]: 93% | Activity [6]: 99.9% | Activity [3]: 7 days | Activity [4]: 8.7 days | logP [8]: 5.6

O=C(N1CCCC1)N1CCC2(CC1)OOC1(O2)C2CC3CC(C2)CC1C3 (centres undefined)
IC50 [1]: 3.9 ng/mL (≈ 10.8 nM) | IC50 [2]: 6.7 ng/mL (≈ 18.5 nM) | Activity [3]: 7.3 days | Activity [4]: 9.7 days

C[C@H]1[C@H](OC(=O)CCC(=O)O)O[C@@H]2O[C@@]3(C)CC[C@H]4[C@H](C)CC[C@@H]1[C@@]24OO3 [ARTESUNATE]
Activity [5]: 65% | Activity [6]: 65% | Activity [3]: 6.8 days | Activity [4]: 6.8 days
